For one series, the target named is T1, IP receptor (Homo sapiens, UniProt P43119).
T1 construct: one million cells in 160 μl aliquot of cell suspension were put in a well of 96 well plate; host or cells: HEL 92.1.7 human erythroleukemia cells (whole cells)
The experiment in a line: IP receptor binding/cAMP in HEL cells ([3H]-iloprost binding, Assay 1; iloprost-induced cAMP production, Assay 2). To be noted: compounds of about 40 to 90% purity, read-out: In vitro activity grade (IC50 class). The gist of the method: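 For binding (Assay 1), 1×10^6 HEL 92.1.7 cells in 50 mM Tris-HCl, 5 mM MgCl2, pH 7.5 were incubated with [3H]-iloprost (0.02 μCi) for 30 min at RT and filter-counted; a 100 μM iloprost solution defined non-specific binding. Compounds were of 40-90% purity.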
Background: cAMP levels reflect the balance of adenylyl cyclase and phosphodiesterase activity.

A value given as a limit tells only on which side of the number the result lay.

Among the data in patent US20060089371A1, “Phenyl or heteroaryl amino alkane derivatives as ip receptor antagonist” (Bayer HealthCare AG, priority 2002, published 2006) are melting point and IC50 values, retold here.

T1 sequence (P43119 whole entry): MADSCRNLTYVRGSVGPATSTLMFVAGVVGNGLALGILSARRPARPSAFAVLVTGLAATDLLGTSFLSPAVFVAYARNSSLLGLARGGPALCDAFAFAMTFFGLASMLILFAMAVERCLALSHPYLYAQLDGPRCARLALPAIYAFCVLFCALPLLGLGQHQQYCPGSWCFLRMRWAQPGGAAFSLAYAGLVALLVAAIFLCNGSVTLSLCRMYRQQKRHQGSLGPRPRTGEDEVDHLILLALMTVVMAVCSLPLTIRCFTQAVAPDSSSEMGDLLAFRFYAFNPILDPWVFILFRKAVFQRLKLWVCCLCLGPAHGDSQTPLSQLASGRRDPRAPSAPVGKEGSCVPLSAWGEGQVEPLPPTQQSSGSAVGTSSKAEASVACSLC

In turn, `CCCCC(Nc1cc(-c2ccc(OCc3cc(F)cc(F)c3)cc2)ncn1)C(=O)O` (centres unmarked) [Example 2-46] had a melting point of 141 to 147 °C. Further, the IC50 on IP receptor was under 100 nM.

On to `O=C(O)C(Cc1ccccc1)Nc1cncc(-c2ccc(OCc3ccccc3)cc2)n1` (centres unmarked) [Example 3-2], for which the melting point lay within 89 to 92 °C. Besides, the IC50 at IP receptor is over 1000 nM.

`O=C(O)C(Cc1ccccc1)Nc1cccc(-c2ccc(OCc3ccccc3)cc2)n1` (centres unmarked) [Example 3-3]: the melting point was 81 to 84 °C. Moreover, at IP receptor, the IC50 was over 1000 nM.

`O=C(O)C(Cc1ccccc1)Nc1cc(-c2ccc(OCc3ccccc3)cc2)ccn1` (centres unmarked) [Example 3-4] came in with a melting point of 194 to 196 °C. Moreover, the IC50 at IP receptor was under 100 nM.

For `CN(C)CCOc1cccc(C[C@H](Nc2cc(-c3ccc(OCc4ccccc4)cc3)ncn2)C(=O)O)c1` [Example 4-1, N-{6-[4-(Benzyloxy)phenyl]pyrimidin-4-yl}-3-[2-(dimethylamino)ethoxy]phenylalanine], the melting point was determined as 143.1 °C. Further, on IP receptor, the IC50 was under 100 nM.

`NCCOc1cccc(C[C@H](Nc2cc(-c3ccc(OCc4ccccc4)cc3)ncn2)C(=O)O)c1` [Example 5-1, 3-(2-Aminoethoxy)-N-{6-[4-(benzyloxy)phenyl]pyrimidin-4-yl}phenylalanine] returned a melting point of 153.8 °C. Also, the IC50 on IP receptor is under 100 nM.

In the case of `O=C(O)[C@H](Cc1ccccc1)Nc1cc(-c2ccc(/C=C/c3ccccc3)cc2)ncn1` [Example 7-1, N-(6-{4-[(E)-2-Phenylvinyl]phenyl}pyrimidin-4-yl)phenylalanine], the melting point was 214 to 216 °C (dec.). Besides, the IC50 at IP receptor was under 100 nM.

On to `O=C(O)[C@H](Cc1ccccc1)Nc1cc(-c2ccc(C#Cc3ccccc3)cc2)ncn1` [Example 9-1, N-{6-[4-(Phenylethynyl)phenyl]pyrimidin-4-yl}phenylalanine], for which the melting point was 215 to 218 °C (dec.). Further, the half-inhibitory concentration (IC50) on IP receptor was under 100 nM.

With `O=C(O)[C@H](Cc1ccccc1)Nc1cc(-c2ccc(/C=C\c3ccccc3)cc2)ncn1` [Example 10-1, N-(6-{4-[(Z)-2-Phenylvinyl]phenyl}pyrimidin-4-yl)phenylalanin], the melting point was 217 to 220 °C (dec.). Further, the IC50 at IP receptor was under 100 nM.

As to `O=C(O)C(Cc1ccccc1)Nc1cc(-c2ccc(-c3ccc4c(c3)OCO4)cc2)ncn1` (centres unmarked) [Example 11-2], the melting point is 139 to 142 °C (dec.). Besides, the IC50 at IP receptor was under 100 nM.

With `CSc1ccc(-c2ccc(-c3cc(NC(Cc4ccccc4)C(=O)O)ncn3)cc2)cc1` (centres unmarked) [Example 11-3], the melting point was 135 to 137 °C (dec.). At IP receptor, the IC50 is under 100 nM.

For the molecule `COc1cccc(-c2ccc(-c3cc(NC(Cc4ccccc4)C(=O)O)ncn3)cc2)c1` (centres unmarked) [Example 11-4], the melting point was 112 to 114 °C (dec.). Besides, the IC50 at IP receptor is under 100 nM.

As for `O=C(O)C(Cc1ccccc1)Nc1cc(-c2ccc(-c3ccc4ccccc4c3)cc2)ncn1` (centres unmarked) [Example 11-5], the melting point was 130 to 132 °C (dec.). In addition, the IC50 on IP receptor was under 100 nM.

For `O=C(O)C(Cc1ccccc1)Nc1cc(-c2ccc(-c3cccc(-c4ccccc4)c3)cc2)ncn1` (centres unmarked) [Example 11-6], the melting point is 124 to 126 °C (dec.). Moreover, the IC50 at IP receptor is 100 to 1000 nM.

With `O=C(O)C(Cc1ccccc1)Nc1cc(-c2ccc(-c3cccc4ccccc34)cc2)ncn1` (centres unmarked) [Example 11-7], the melting point was 135 to 138 °C (dec.). Further, on IP receptor, the IC50 is 100 to 1000 nM.

For the molecule `O=C(O)C(Cc1ccccc1)Nc1cc(-c2ccc(-c3cccc([N+](=O)[O-])c3)cc2)ncn1` (centres unmarked) [Example 11-9], the melting point was 125 to 127 °C (dec.). At IP receptor, the 50% inhibitory concentration (IC50) was under 100 nM.

Turning to `COc1ccccc1-c1ccc(-c2cc(NC(Cc3ccccc3)C(=O)O)ncn2)cc1` (centres unmarked) [Example 11-10], the melting point is 121 to 123 °C (dec.). Besides, the IC50 at IP receptor lay within 100 to 1000 nM.

For `O=C(O)C(Cc1ccccc1)Nc1cc(-c2ccc(-c3ccc(Oc4ccccc4)cc3)cc2)ncn1` (centres unmarked) [Example 11-11], the melting point is 120 to 123 °C (dec.). In addition, on IP receptor, the IC50 fell in the range of 100 to 1000 nM.

`COc1cc(-c2ccc(-c3cc(NC(Cc4ccccc4)C(=O)O)ncn3)cc2)cc(OC)c1OC` (centres unmarked) [Example 11-12] came in with a melting point of 120 to 123 °C. The IC50 on IP receptor was in the range of 100 to 1000 nM.

On to `O=C(Nc1ccc(-c2cc(N[C@@H](Cc3ccccc3)C(=O)O)ncn2)cc1)c1ccccc1` [Example 14-1, N-{6-[4-(Benzoylamino)phenyl]pyrimidin-4-yl}phenylalanine], for which the melting point was 250 to 252 °C (dec.). On IP receptor, the IC50 fell in the range of 100 to 1000 nM.

For `CC(C)(C)OC(=O)Nc1ccc(-c2cc(NC(Cc3ccccc3)C(=O)O)ncn2)cc1` (centres unmarked) [Example 14-2], the melting point was 153 to 155 °C (dec.). On IP receptor, the concentration for half-maximal inhibition (IC50) fell in the range of 100 to 1000 nM.

Turning to `O=C(Cc1ccccc1)Nc1ccc(-c2cc(NC(Cc3ccccc3)C(=O)O)ncn2)cc1` (centres unmarked) [Example 14-3], the melting point was 145 to 148 °C (dec.). The IC50 at IP receptor was in the range of 100 to 1000 nM.

For `O=C(O)C(Cc1ccccc1)Nc1cc(-c2ccc(NS(=O)(=O)c3ccc(F)cc3)cc2)ncn1` (centres unmarked) [Example 15-2], the melting point is 217 to 220 °C (dec.). Besides, at IP receptor, the IC50 is over 1000 nM.

Consider `O=C(c1ccccc1)c1ccc(-c2cc(N[C@@H](Cc3ccccc3)C(=O)O)ncn2)cc1` [Example 17-1, N-[6-(4-Benzoylphenyl)pyrimidin-4-yl]phenylalanine], for which the melting point was in the range of 109 to 111 °C. Also, the IC50 at IP receptor is under 100 nM.

Turning to `O=C(c1ccc(-c2cc(NC(Cc3ccccc3)C(=O)O)ncn2)cc1)C1CCCCC1` (centres unmarked) [Example 17-2], the melting point was 116 to 119 °C. The half-inhibitory concentration (IC50) at IP receptor was 100 to 1000 nM.

Molecule `O=C(c1ccc(-c2cc(NC(Cc3ccccc3)C(=O)O)ncn2)cc1)C1CCCC1` (centres unmarked) [Example 17-3] yielded a melting point of 114 to 116 °C. Besides, the IC50 at IP receptor is under 100 nM.

With `O=C(c1ccc(F)cc1)c1ccc(-c2cc(NC(Cc3ccccc3)C(=O)O)ncn2)cc1` (centres unmarked) [Example 17-4], the melting point was in the range of 115 to 117 °C. Moreover, the IC50 at IP receptor was under 100 nM.

For the molecule `O=C(c1ccc(Cl)cc1)c1ccc(-c2cc(NC(Cc3ccccc3)C(=O)O)ncn2)cc1` (centres unmarked) [Example 17-5], the melting point fell in the range of 123 to 126 °C. Besides, on IP receptor, the IC50 was under 100 nM.

`O=C(O)C(Cc1ccccc1)Nc1cc(-c2ccc(Cc3ccc(F)cc3)cc2)ncn1` (centres unmarked) [Example 18-2] registered a melting point of 98 to 101 °C. The IC50 on IP receptor was in the range of 100 to 1000 nM.

As to `O=C(O)C(Cc1ccccc1)Nc1cc(-c2ccc(Cc3ccc(Cl)cc3)cc2)ncn1` (centres unmarked) [Example 18-3], the melting point is 105 to 107 °C. Moreover, the IC50 on IP receptor lay within 100 to 1000 nM.

As for `O=C(O)C(Cc1ccccc1)Nc1cc(-c2ccc(CNCc3ccccc3)cc2)ncn1` (centres unmarked) [Example 19-2], the melting point is 173 to 176 °C (dec.). Also, the IC50 at IP receptor was in the range of 100 to 1000 nM.

With `O=C(O)C(Cc1ccccc1)Nc1cc(-c2ccc(CN3CCc4ccccc4C3)cc2)ncn1` (centres unmarked) [Example 19-4], the melting point lay within 148 to 150 °C. Besides, the IC50 on IP receptor is over 1000 nM.

Consider `O=C(O)C(Cc1ccccn1)Nc1cc(-c2ccc(COc3ccccc3)cc2)ncn1` (centres unmarked) [Example 20-2], for which the melting point fell in the range of 81 to 84 °C. Also, on IP receptor, the IC50 was under 100 nM.

Molecule `O=C(O)[C@H](Cc1ccccc1)Nc1cc(-c2ccc(/C=N/Oc3ccccc3)cc2)ncn1` [Example 21-1, N-(6-{4-[(E)-(phenoxyimino)methyl]phenyl}pyrimidin-4-yl)phenylalanine] displayed a melting point of 152.8 °C. The half-maximal inhibitory concentration (IC50) on IP receptor is under 100 nM.

Consider `O=Cc1c(N[C@@H](Cc2ccccc2)C(=O)O)ncnc1-c1ccc(OCc2ccccc2)cc1` [Example 22-1, N-{6-[4-(Benzyloxy)phenyl)-5-formylpyrimidin-4-yl}phenylalanine], for which the melting point is over 300 °C. In addition, the IC50 at IP receptor fell in the range of 100 to 1000 nM.

In turn, `O=C(O)[C@H](Cc1ccccc1)Nc1ncnc(-c2ccc(OCc3ccccc3)cc2)c1CO` [Example 23-1, N-[6-[4-(Benzyloxy)phenyl]-5-(hydroxymethyl)pyrimidin-4-yl]phenylalanine] displayed a melting point of 114 to 117 °C. In addition, the IC50 at IP receptor was in the range of 100 to 1000 nM.

As for `O=C(O)[C@H](Cc1ccccc1)Nc1cccc(-c2ccc(OCc3ccccc3)cc2)c1` [Example 24-1, N-[4′-(Benzyloxy)biphenyl-3-yl]phenylalanine], the melting point was 152 to 154 °C. Further, the IC50 on IP receptor is under 100 nM.

On to `COc1cccc(COc2ccc(-c3cccc(N[C@@H](Cc4ccccc4)C(=O)O)c3)cc2)c1` [Example 24-2, N-{4′-[(3-Methoxybenzyl)oxy]biphenyl-3-yl}phenylalanine], for which the melting point was in the range of 159 to 162 °C. At IP receptor, the IC50 is under 100 nM.

On to `COc1cc(COc2ccc(-c3cccc(NC(Cc4ccccc4)C(=O)O)c3)cc2)cc(OC)c1` (centres unmarked) [Example 24-3], for which the melting point was 166 to 168 °C. Also, the 50% inhibitory concentration (IC50) on IP receptor was under 100 nM.

`O=C(O)C(Cc1ccccc1)Nc1cccc(-c2ccc(OCc3ccccc3F)cc2)c1` (centres unmarked) [Example 24-4] showed a melting point of 158 to 161 °C. Moreover, at IP receptor, the IC50 was under 100 nM.

`O=C(O)C(Cc1ccccc1)Nc1cccc(-c2ccc(OCc3cccc(F)c3)cc2)c1` (centres unmarked) [Example 24-5] yielded a melting point of 167 to 169 °C. Further, at IP receptor, the IC50 is under 100 nM.

The molecule `O=C(O)C(Cc1ccccc1)Nc1cccc(-c2ccc(OCc3ccc(F)cc3)cc2)c1` (centres unmarked) [Example 24-6] came in with a melting point of 175 to 178 °C. Moreover, the IC50 on IP receptor lay within 100 to 1000 nM.

In the case of `O=C(O)C(Cc1ccccc1)Nc1cccc(-c2ccc(OCCn3cccc3)cc2)c1` (centres unmarked) [Example 24-7], the melting point fell in the range of 182 to 185 °C. In addition, the IC50 at IP receptor is under 100 nM.

As usually defined, the melting point is the temperature, or range, at which the solid turns liquid. As a reminder, the IC50 is the point on the concentration scale where inhibition reaches its midpoint.
